pIC50: −log10 of the molar value. “And” between values parts separate entries of the source, which are not always exact repeats. Equal entries are not always repeated.
Test system: 168753-222-R-J1-PDC complex spheroid viability
Assay: Anticancer human tumor 168753-222-R-J1-PDC patient-derived bladder carcinoma cell line growth inhibition [CLK]
Details: for viability, T/C: stronger effect = lower value
In short: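 Patient-derived tumor cells grown as complex spheroids with HUVEC endothelial cells and mesenchymal stem cells, treated with drug combinations. Concentrations descend in half-log steps from near clinical Cmax, or from 10 microM if Cmax unknown.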

[1] = curve of first compound, second compound 0.0316 µM
[2] = curve of first compound, second compound 0.1 µM
[3] = curve of first compound, second compound 0.316 µM
[4] = curve of first compound, second compound 1 µM
[5] = curve of first compound, second compound 3.16 µM
[6] = curve of first compound, second compound 10 µM
[7] = second compound 0.0316 µM, first compound 0.0316 µM
[8] = second compound 0.0316 µM, first compound 0.1 µM
[9] = second compound 0.0316 µM, first compound 0.316 µM
[10] = second compound 0.0316 µM, first compound 1 µM
[11] = second compound 0.1 µM, first compound 0.0316 µM
[12] = second compound 0.1 µM, first compound 0.1 µM
[13] = second compound 0.1 µM, first compound 0.316 µM
[14] = second compound 0.1 µM, first compound 1 µM
[15] = second compound 0.316 µM, first compound 0.0316 µM
[16] = second compound 0.316 µM, first compound 0.1 µM
[17] = second compound 0.316 µM, first compound 0.316 µM
[18] = second compound 0.316 µM, first compound 1 µM
[19] = second compound 1 µM, first compound 0.0316 µM
[20] = second compound 1 µM, first compound 0.1 µM
[21] = second compound 1 µM, first compound 0.316 µM
[22] = second compound 1 µM, first compound 1 µM
[23] = second compound 3.16 µM, first compound 0.0316 µM
[24] = second compound 3.16 µM, first compound 0.1 µM
[25] = second compound 3.16 µM, first compound 0.316 µM
[26] = second compound 3.16 µM, first compound 1 µM
[27] = second compound 10 µM, first compound 0.0316 µM
[28] = second compound 10 µM, first compound 0.1 µM
[29] = second compound 10 µM, first compound 0.316 µM
[30] = second compound 10 µM, first compound 1 µM
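Further: viability measured after seven days of drug exposure.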
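Wherever viability, T/C is given: luminescence signal used as surrogate for viable cell amount; 100% = DMSO vehicle control wells.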

Q: `COc1c(OCCCN2CCOCC2)ccc2c3n(c(=NC(=O)c4cnc(N)nc4)nc12)CCN3` + CNC(=O)c1ccc(Nc2nc(OC3CCCC3)c3c(-c4ccc5nc(C)oc5c4)c[nH]c3n2)c(OC)c1 was tested. Which pIC50 [1] did it give?
A: 7.92

Q: And the pIC50 [2]?
A: 7.88

Q: What about the pIC50 [3] of the same molecule?
A: 8.29

Q: And the pIC50 [4]?
A: > 8.50

Q: What about the pIC50 [5] of the same molecule?
A: > 8.50

Q: And the pIC50 [6]?
A: > 8.50

Q: What about the viability, T/C (second compound 0.0316 µM, first compound 0.00316 µM) of the same molecule?
A: 96.5%

Q: What about the viability, T/C (second compound 0.0316 µM, first compound 0.01 µM) of the same molecule?
A: 56.4%

Q: What about the viability, T/C [7] of the same molecule?
A: 17.8%

Q: And the viability, T/C [8]?
A: 13.7%

Q: And the viability, T/C [9]?
A: 8.52%

Q: And the viability, T/C [10]?
A: 1.96%

Q: And the viability, T/C (second compound 0.1 µM, first compound 0.00316 µM)?
A: 87.3%

Q: And the viability, T/C (second compound 0.1 µM, first compound 0.01 µM)?
A: 60.8%

Q: What about the viability, T/C [11] of the same molecule?
A: 14.7%

Q: And the viability, T/C [12]?
A: 11.1%

Q: What about the viability, T/C [13] of the same molecule?
A: 7.84%

Q: What about the viability, T/C [14] of the same molecule?
A: 1.03%

Q: And the viability, T/C (second compound 0.316 µM, first compound 0.00316 µM)?
A: 67.3%

Q: What about the viability, T/C (second compound 0.316 µM, first compound 0.01 µM) of the same molecule?
A: 25.6%

Q: And the viability, T/C [15]?
A: 12.7%

Q: What about the viability, T/C [16] of the same molecule?
A: 7.32%

Q: What about the viability, T/C [17] of the same molecule?
A: 4.55%

Q: What about the viability, T/C [18] of the same molecule?
A: 0.36%

Q: What about the viability, T/C (second compound 1 µM, first compound 0.00316 µM) of the same molecule?
A: 25%

Q: What about the viability, T/C (second compound 1 µM, first compound 0.01 µM) of the same molecule?
A: 16.4%

Q: And the viability, T/C [19]?
A: 3.59%

Q: What about the viability, T/C [20] of the same molecule?
A: 0.43%

Q: And the viability, T/C [21]?
A: 0.26%

Q: And the viability, T/C [22]?
A: 1.09%

Q: And the viability, T/C (second compound 3.16 µM, first compound 0.00316 µM)?
A: 14.6%

Q: And the viability, T/C (second compound 3.16 µM, first compound 0.01 µM)?
A: 12.3%

Q: What about the viability, T/C [23] of the same molecule?
A: 2.46%

Q: And the viability, T/C [24]?
A: 0.34%

Q: What about the viability, T/C [25] of the same molecule?
A: 2.13%

Q: And the viability, T/C [26]?
A: 1.79%

Q: And the viability, T/C (second compound 10 µM, first compound 0.00316 µM)?
A: 12.6%

Q: What about the viability, T/C (second compound 10 µM, first compound 0.01 µM) of the same molecule?
A: 10.4%

Q: What about the viability, T/C [27] of the same molecule?
A: 3.75%

Q: What about the viability, T/C [28] of the same molecule?
A: 2.46%

Q: What about the viability, T/C [29] of the same molecule?
A: 0.34%

Q: What about the viability, T/C [30] of the same molecule?
A: 3.45%

Q: Which results are given for `CC1(C)CCC(CN2CCN(c3ccc(C(=O)NS(=O)(=O)c4ccc(NCC5CCOCC5)c([N+](=O)[O-])c4)c(Oc4cnc5[nH]ccc5c4)c3)CC2)=C(c2ccc(Cl)cc2)C1` + CN1CCN(c2cc(C(=O)Nc3cc4cc(-c5cnn(C)c5)ccc4cn3)ccn2)CC1?
A: pIC50 [1]: 6.17; pIC50 [2]: 6.81; pIC50 [3]: > 7.50; pIC50 [4]: > 7.50; pIC50 [5]: > 7.50; pIC50 [6]: > 7.50; viability, T/C [7]: 74.8%; viability, T/C [8]: 84.6%; viability, T/C [9]: 55.5%; viability, T/C [10]: 41.3%; viability, T/C (second compound 0.0316 µM, first compound 3.16 µM): 31.6%; viability, T/C (second compound 0.0316 µM, first compound 10 µM): 10.2%; viability, T/C [11]: 69.7%; viability, T/C [12]: 60.5%; viability, T/C [13]: 28.1%; viability, T/C [14]: 35.8%; viability, T/C (second compound 0.1 µM, first compound 3.16 µM): 33.7%; viability, T/C (second compound 0.1 µM, first compound 10 µM): 10.3%; viability, T/C [15]: 10.3%; viability, T/C [16]: 10.3%; viability, T/C [17]: 8.72%; viability, T/C [18]: 8.03%; viability, T/C (second compound 0.316 µM, first compound 3.16 µM): 8.36%; viability, T/C (second compound 0.316 µM, first compound 10 µM): 7.08%; viability, T/C [19]: 0.25%; viability, T/C [20]: 0.31%; viability, T/C [21]: 0.77%; viability, T/C [22]: 0.22%; viability, T/C (second compound 1 µM, first compound 3.16 µM): 0.16%; viability, T/C (second compound 1 µM, first compound 10 µM): 1.27%; viability, T/C [23]: 0.41%; viability, T/C [24]: 0.29%; viability, T/C [25]: 0.71%; viability, T/C [26]: 0.15%; viability, T/C (second compound 3.16 µM, first compound 3.16 µM): 1.14%; viability, T/C (second compound 3.16 µM, first compound 10 µM): 0.49%; viability, T/C [27]: 0.2%; viability, T/C [28]: 0.75%; viability, T/C [29]: 0.51%; viability, T/C [30]: 0.26%; viability, T/C (second compound 10 µM, first compound 3.16 µM): 0.35%; viability, T/C (second compound 10 µM, first compound 10 µM): 1.21%

Q: Which viability, T/C (compound 0.000316 µM) does the source give for `Cn1ncnc1[C@H]1c2n[nH]c(=O)c3cc(F)cc(c23)N[C@@H]1c1ccc(F)cc1` here?
A: 82.2% and 103%

Q: And the viability, T/C (compound 0.001 µM)?
A: 97% and 99.6%

Q: What about the viability, T/C (compound 0.00316 µM) of the same molecule?
A: 70% and 106%

Q: And the viability, T/C (compound 0.01 µM)?
A: 87.6% and 108%

Q: What about the viability, T/C (compound 0.0316 µM) of the same molecule?
A: 74.9% and 108%

Q: And the viability, T/C (compound 0.1 µM)?
A: 55.2% and 91.6%

Q: And the pIC50 (curve of compound)?
A: < 7.00
